Assay results taken from patent publication US20220267271A1, “WNT ACTIVATORS AND METHODS OF USE” (MAYO FOUNDATION FOR MEDICAL EDUCATION AND RESEARCH, priority 2019, published 2022).
≈ marks a conversion by molar mass, not a printed value. Like-named read-outs stand apart in the source and are kept apart here.

Tests used:
LRP6 = test: Wnt reporter assay in HEK293 cells after LRP6 siRNA knockdown; assay type: cell-based, human; details: CI-994 16 μM, 1011, 1015, 1023 1 μM, 24 h
Method: (A) structures of niciosamide and CI-994; (B) HEK293 cells were transfected with Super8XTOPFlash and β galactosidase vectors along with Wnt3A or control vector. After 24 hours incubation, cells were treated with CI-994 at the indicated concentration for 24 hr. The luciferase activity was then measured and normalized to the activity of the β-galactosidase. (C) HT1080 cells stably transduced LRP6 with HA tag were treated with niciosamide and CI-994 at the indicated concentrations for 24 h. The levels of HA-LRP6 were examined by Western blot with anti-HA antibody. (D) Western blots showing the depletion of LRP6 after 2 days of transiently transfection of 50 nM LRP6 siRNA in HEK293 cells. ON-TARGETplus double-stranded siRNA oligomers against human LRP6 and non-specific scrambled siRNA control (Stealth RNAi™ siRNA Negative Control, Med GC) were purchased from Thermo Scientific. siRNA LRP6-1, siRNA LRP6-2 and control siRNA were Thermo Scientific catalog numbers J-003845-09, J-003845-11 and 12935300, respectively. (E) HEK293 cells were transfected with LRP6 siRNAs, and after 8 h incubation were further transfected with Super8XTOPFlash construct and β galactosidase-expressing vector. After 24 h incubation, the cells were treated with CI-994 (16 μM) for 24 h. The luciferase activity was then measured and normalized to β-galactosidase activity. All the values are the average of triplicate determinations with the SD values indicated by error bars. **P<0.01 versus corresponding control value.
(A) HT1080 cells stably transduced with human LRP6 with HA tag were treated with niciosamide (1 μM) and other compounds as noted (1 μM) for 24 hr. The levels of HA-LRP6 were examined by Western blots with anti-HA antibody. All samples were also probed with anti-actin antibody to verify equal loading. This experiment is a representative of two such experiments performed with similar data. (B) N2a cells were treated with 1015 and 1011 at the indicated concentrations for 24 h. The expression levels of LRP6, β-catenin and actin were examined by Western blotting. This experiment is a representative of three such experiments performed with similar data. (C) HEK293 cells were transfected with LRP6 siRNAs, and after 8 h incubation were further transfected with Super8XTOPFlash construct and β galactosidase-expressing vector. ON-TARGETplus double-stranded siRNA oligomers against human LRP6 and non-specific scrambled siRNA control (Stealth RNAi™ siRNA Negative Control, Med GC) were purchased from Thermo Scientific. siRNA LRP6-1, siRNA LRP6-2 and control siRNA were Thermo Scientific catalog numbers J-003845-09, J-003845-11 and 12935300, respectively. […] The luciferase activity was then measured and normalized to β-galactosidase activity. […]

[1] = Aqueous (kinetic) solubility assay in PBS pH 7.4; assay type: physicochemical; details: phosphate-buffered saline, 25 °C, pH 7.4, aqueous buffer, kinetic from dmso stock, PBS pH 7.4, 2% DMSO, two hours, assay range 2-200 μM
Method: Aqueous solubility assay: Using a 10 mM stock solution of the compound in 100% DMSO, dilutions were prepared to a theoretical concentration of 200 μM in duplicates in phosphate-buffered saline pH 7.4 with 2% final DMSO. In parallel, compound dilutions in 50% acetonitrile/PBS were prepared to theoretical concentrations of 0 μM (blank), 50 μM, 100 μM and 200 μM with 2% final DMSO to generate calibration curves. The experimental compound dilutions in PBS were further allowed to equilibrate at 25° C. on a thermostatic orbital shaker for two hours and then centrifuged at 14000 rpm, 5 min and filtered through HTS filter plates using a vacuum manifold. The supernatants of test compounds were diluted 2-fold with acetonitrile contained 4% DMSO before measuring. Ondansetron was used as reference compound to control proper assay performance. 200 μl of samples were transferred to 96-well plate and measured in 200-550 nm range with 5 nm step. The effective range of this assay is approximately 2-200 μM and the compounds returning values close to the upper limit of the range may have higher actual solubility (e.g. 5 ? deoxy-5-fluorouddine).

C2C12 cells = test: Alkaline phosphatase (ALP) activity assay, osteoblastic differentiation of C2C12 cells; assay type: cell-based; details: 72 h; for potency in inducing C2C12 osteoblastic differentiation compared with CI-994: dose-response 0.1-12.8 μM
Method: C2C12 cells were seeded into 24-well plates (1×10^5 cells/well). After culture overnight, the cells were treated with a Wnt activator at 0.8 μM (A) and 1.6 μM (B) for 72 h. The ALP activity was measured by ALP assay kit from AnaSpec (AS-72146). All the values are the average of triple determinations with the s.d. indicated by error bars. *P<0.05, **P<0.01 versus corresponding control value. This experiment is a representation of two such experiments performed with similar data.
C2C12 cells were seeded into 24-well plates (1×10^5 cells/well). After culture overnight, the cells were treated with the noted compounds at 0, 0.1, 0.2, 0.4, 0.8, 1.6, 3.2, 6.4 and 12.8 μM for 72 hours. The ALP activity was measured by ALP assay kit from AnaSpec (AS-72146). All the values are the average of triple determinations with the s.d. indicated by error bars.
Alkaline phosphatase (ALP) activity assay: C2C12 cells in 24-well plates were treated with each individual compound at the indicated concentrations for 72 h. Cells were then harvested for assay of ALP activity with the ALP assay kit (AnaSpec) according to the manufacturers specifications.

[2] = read-out: PBS solubility, pH 7.4, μM Exp1
[3] = read-out: PBS solubility, pH 7.4, μM Exp2
[4] = read-out: PBS solubility, pH 7.4, μM Mean

SMILES	effect of knockdown of LRP6 expression on the compound's effect on Wnt/β-catenin signaling (LRP6)	solubility at 2 h [1, 2] [µM]	solubility at 2 h [1, 3] [µM]	solubility at 2 h [1, 4] [µM]	potency in inducing C2C12 osteoblastic differentiation compared with CI-994 (C2C12 cells)	ALP activity (C2C12 cells; C2C12 cells, 0.8 μM and 1.6 μM)
Nc1ccccc1NC(=O)c1ccc(C(=O)NCC2CCN2C2CCCC2)cn1 (stereo not drawn) [Compound 1015]	significantly attenuated	210 (≈ 82.6 µg/mL)	211 (≈ 83 µg/mL)	≥ 200	more potent than CI-994	–
CC1CCCC(C)N1CCNC(=O)c1ccc(C(=O)Nc2ccccc2N)nc1 (stereo not drawn) [Compound 1011]	significantly attenuated	207 (≈ 81.9 µg/mL)	207 (≈ 81.9 µg/mL)	≥ 200	more potent than CI-994	–
Nc1ccccc1NC(=O)c1ccc(C(=O)NCCN2CCC3(CCCCC3)CC2)cc1 [Compound 1020]	–	200 (≈ 86.9 µg/mL)	205 (≈ 89.1 µg/mL)	≥ 200	–	–
CC(=O)Nc1ccc(C(=O)Nc2ccccc2N)cc1 [CI-994, 4-(acetylamino)-N-(2-aminophenyl)benzamide, reference compound]	significantly attenuated	–	–	–	–	significantly enhanced
